Experimental data from US10682340B2, “Depot formulations” (DURECT CORPORATION, priority 2016, dated 2020).
≈ marks a conversion by molar mass, not a printed value. Like-named read-outs stand apart in the source and are kept apart here.

Experiment: Solubility of sirolimus in aqueous media, solvents and benzyl benzoate/ethanol mixtures
Format: physicochemical

solubility (PBS with 0.1% SDS, aqueous with cosolvent or surfactant or cyclodextrin, PBS, 0.1% SDS, pH 7.4, ambient temperature, read-out: Solubility): 0.23 mg/mL (≈ 0.252 mM) | solubility (PBS, pH 7.4, ambient temperature): Not detected | solubility (benzyl benzoate/ethanol mixture, organic solvent or mixture, BB/EtOH Ratio 7, room temperature, read-out: Solubility in Benzyl Benzoate/Ethanol): 163 mg/mL | solubility (benzyl benzoate/ethanol mixture, organic solvent or mixture, BB/EtOH Ratio 9, room temperature, read-out: Solubility in Benzyl Benzoate/Ethanol): 125 mg/mL | solubility (benzyl benzoate/ethanol mixture, organic solvent or mixture, BB/EtOH Ratio 16, room temperature, read-out: Solubility in Benzyl Benzoate/Ethanol): 90.1 mg/mL | solubility (benzyl benzoate/ethanol mixture, organic solvent or mixture, BB/EtOH Ratio 18, room temperature, read-out: Solubility in Benzyl Benzoate/Ethanol): 85.6 mg/mL | solubility (oil or lipid, Castor oil, ambient temperature, read-out: Solubility): 3 mg/mL (≈ 3.28 mM) | solubility (organic solvent or mixture, Benzyl alcohol (BA), ambient temperature, read-out: Solubility): ≥ 387 mg/mL | solubility (organic solvent or mixture, Benzyl benzoate (BB), ambient temperature, read-out: Solubility): 37 mg/mL (≈ 40.5 mM) | solubility (organic solvent or mixture, Dimethyl sulfoxide (DMSO), ambient temperature, read-out: Solubility): ≥ 243 mg/mL | solubility (organic solvent or mixture, Ethanol (EtOH), ambient temperature, read-out: Solubility): 48.5 mg/mL (≈ 53.1 mM) | solubility (organic solvent or mixture, N methyl-2 Pyrrolidone (NMP), ambient temperature, read-out: Solubility): ≥ 284 mg/mL | solubility (organic solvent or mixture, PEG 400, ambient temperature, read-out: Solubility): 10.7 mg/mL (≈ 11.7 mM) | solubility (organic solvent or mixture, Propylene glycol, ambient temperature, read-out: Solubility): 11.8 mg/mL (≈ 12.9 mM)
SMILES: CO[C@H]1C[C@@H]2CC[C@@H](C)[C@@](O)(O2)C(=O)C(=O)N2CCCC[C@H]2C(=O)O[C@H]([C@H](C)C[C@@H]2CC[C@@H](O)[C@H](OC)C2)CC(=O)[C@H](C)/C=C(\C)[C@@H](O)[C@@H](OC)C(=O)[C@H](C)C[C@H](C)/C=C/C=C/C=C/1C [Sirolimus, sirolimus]
